Tests used:
[1] = system: B16-F10; assay: animal or person; details: Mus musculus, B16-F10, 360 h, read-out: TGI
Description: Antitumor activity against mouse B16-F10 cells xenografted in C57BL/6 mouse assessed as inhibition of tumor growth at 100 mg/kg, ip administered once a week and measured for 15 days

[2] = molecular target: T1, Aryl hydrocarbon receptor (Mus musculus, UniProt P30561); assay: Antagonist activity at AhR receptor in kynurenine-stimulated mouse B16-F10 cells assessed as decrease in IL-6 gene expression at 10 to 30 uM measured after 24 hrs by RT-qPCR analysis; type: cell-based; details: b16-f10, 24 h, dose 10-30 µM
T1 sequence (P30561 whole entry): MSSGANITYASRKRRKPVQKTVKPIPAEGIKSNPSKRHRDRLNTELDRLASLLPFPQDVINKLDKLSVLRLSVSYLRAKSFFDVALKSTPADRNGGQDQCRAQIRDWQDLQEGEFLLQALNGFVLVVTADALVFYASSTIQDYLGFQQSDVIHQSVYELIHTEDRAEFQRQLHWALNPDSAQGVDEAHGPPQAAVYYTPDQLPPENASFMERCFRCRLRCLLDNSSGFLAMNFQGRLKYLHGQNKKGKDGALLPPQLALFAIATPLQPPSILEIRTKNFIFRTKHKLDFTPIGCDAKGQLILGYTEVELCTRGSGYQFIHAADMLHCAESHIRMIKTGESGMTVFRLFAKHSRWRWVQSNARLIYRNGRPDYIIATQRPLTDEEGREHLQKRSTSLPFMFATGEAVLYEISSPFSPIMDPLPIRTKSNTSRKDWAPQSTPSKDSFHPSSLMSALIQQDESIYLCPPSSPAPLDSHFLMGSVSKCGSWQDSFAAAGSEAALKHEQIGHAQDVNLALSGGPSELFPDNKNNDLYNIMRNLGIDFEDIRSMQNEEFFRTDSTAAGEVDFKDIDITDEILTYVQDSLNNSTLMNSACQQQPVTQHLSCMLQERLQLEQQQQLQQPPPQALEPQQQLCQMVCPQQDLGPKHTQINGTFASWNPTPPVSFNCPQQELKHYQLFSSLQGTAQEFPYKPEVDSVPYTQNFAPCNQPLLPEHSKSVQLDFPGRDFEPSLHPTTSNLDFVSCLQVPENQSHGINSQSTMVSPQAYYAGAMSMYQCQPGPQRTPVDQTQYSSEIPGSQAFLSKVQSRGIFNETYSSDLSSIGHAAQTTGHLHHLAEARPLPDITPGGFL

[3] = molecular target: T1, Aryl hydrocarbon receptor; assay: Antagonist activity at AhR receptor in mouse B16-F10 cells assessed as inhibition of kynurenine-induced receptor nuclear translocation by measuring increase in receptor level in cytoplasm at 10 to 30 uM measured after 72 hrs by Hoechst staining based immunofluorescence analysis; type: cell-based; details: b16-f10, 72 h, dose 10-30 µM
[4] = molecular target: T1, Aryl hydrocarbon receptor; assay: Antagonist activity at AhR receptor in kynurenine-stimulated mouse B16-F10 cells assessed as decrease in AhRR gene expression at 10 to 30 uM measured after 24 hrs by RT-qPCR analysis; type: cell-based; details: b16-f10, 24 h, dose 10-30 µM
[5] = molecular target: T1, Aryl hydrocarbon receptor; assay: Antagonist activity at AhR receptor in mouse B16-F10 cells assessed as inhibition of kynurenine-induced receptor nuclear translocation by measuring increase in receptor level in cytoplasm at 30 uM measured after 24 hrs by western blot analysis; type: subcellular; details: b16-f10, 24 h
[6] = molecular target: T1, Aryl hydrocarbon receptor; assay: Antagonist activity at AhR receptor in kynurenine-stimulated mouse B16-F10 cells assessed as decrease in IDO-1 gene expression at 10 to 30 uM measured after 48 hrs by RT-qPCR analysis; type: cell-based; details: b16-f10, 48 h, dose 10-30 µM
[7] = Toxicity against C57BL/6 mouse xenografted with mouse B16-F10 cells assessed as change in body weight at 0.3 to 1 mg/kg, po administered daily and measured for 15 days; type: organism-based; details: in vivo, 360 h, dose 0.3-1 mg/kg, time 15 day
[8] = molecular target: T1, Aryl hydrocarbon receptor; assay: Antagonist activity at AhR receptor in mouse B16-F10 cells assessed as inhibition of kynurenine-induced receptor nuclear translocation by measuring decrease in receptor level in nucleus at 30 uM measured after 24 hrs by western blot analysis; type: subcellular; details: b16-f10, 24 h
[9] = molecular target: T1, Aryl hydrocarbon receptor; assay: Antagonist activity at AhR receptor in mouse B16-F10 cells assessed as inhibition of kynurenine-induced receptor nuclear translocation by measuring decrease in receptor level in nucleus at 10 to 30 uM measured after 72 hrs by Hoechst staining based immunofluorescence analysis; type: cell-based; details: b16-f10, 72 h, dose 10-30 µM

| Compound | inhibition in vivo at 100 mg/kg [1] [%] | inhibition (INH) [2] | inhibition (INH) [3] | inhibition (INH) [4] | inhibition (INH) [5] | inhibition (INH) [6] | Activity [7] | inhibition (INH) [8] | inhibition (INH) [9] |
| --- | --- | --- | --- | --- | --- | --- | --- | --- | --- |
| O=P1(N(CCCl)CCCl)NCCCO1 (centres undefined) [CYCLOPHOSPHAMIDE ANHYDROUS] | 92.2 | – | – | – | – | – | – | – | – |
| CC(=O)OC1Oc2c(C(C)C)cc3ccc4c(C)c(C)ccc4c3c2OC1c1ccccc1 (racemic) | – | Active | Active | Active | Active | Active | Non-Toxic | Active | Active |

Source: ChEMBL document CHEMBL5528030, “Discovery of Natural Ah Receptor Antagonists from Salvia miltiorrhiza Bunge and Synthesis of Analogs for Tumor Immunotherapy” (J Med Chem, 2024)
